Assay results as given in patent US8809341B2, “2,4-pyrimidinediamine compounds and uses as anti-proliferative agents” (Rigel Pharmaceuticals, Inc., priority 2003, dated 2014).
Blank lines part the entries; values can stand above or below the molecule they belong to.

How the values were obtained:
H1299 cells = test: in vitro antiproliferation assay, H1299 (lung); format: cell-based
Procedure: (§1) The IC50 values of various compounds against a various different tumor cell lines were determined using standard in vitro antiproliferation assays. The tumor cell lines tested were as follows: A549 (lung); H1299 (lung), ACHN (kidney/p53 wt), CAKI (renal cell carcinoma), NCI-H460 (lung); HCT116 (colon/p53w0; HELA (cervix/p53 wt), HUH7 (liver/p53 wt), HUVEC (primary endothelial), LNCAP (prostate), HT-29 (colon); MCF-7 (breast); MCF-7 (breast/ER positive), MDA MB435S (breast); MDA MB231 (breast/ER negative), DU145 (prostate); BxPC-3 (pancreatic); SKOV-3 (ovarian); HepG2 (hepatic), NDHF primary normal human dermal fibroblast), SKMEL28 (breast/p53mut), SKMEL5 (breast/p53 wt), U20S (bone) and PC3 (prostate). […] A blank indicates the specified compound was not tested against the specified cell line.

A549 cells = test: in vitro antiproliferation assay, A549 (lung); format: cell-based
Procedure: as §1

[1] = Homo sapiens, NCI-H1299, IC50 class against H1299 (lung) tumor cells
[2] = Homo sapiens, IC50 class against A549 (lung) tumor cells
[3] = IC50 class against H1299 (lung) tumor cells
[4] = IC50 class against A549 (lung) tumor cells
[5] = H1299 (lung) cells, in vitro antiproliferation
[6] = A549 (lung) cells, in vitro antiproliferation
[7] = H1299 (lung) cells, antiproliferation
[8] = A549 (lung) cells, antiproliferation
[9] = Table 7, in vitro antiproliferation, H1299 (lung) cells
[10] = Table 7, in vitro antiproliferation, A549 (lung) cells
[11] = in vitro antiproliferation, H1299 (lung) cells, Table 4, compounds with no designated stereochemistry tested as racemate
[12] = in vitro antiproliferation, A549 (lung) cells, Table 4, compounds with no designated stereochemistry tested as racemate
[13] = Table 5, in vitro antiproliferation, H1299 (lung) cells
[14] = Table 5, in vitro antiproliferation, A549 (lung) cells

IC50 (H1299 cells; [1]): ≤ 20 µM
IC50 (A549 cells; [2]): ≤ 20 µM
Compound: CCOC(=O)N1CCN(c2cccc(Nc3ncc(F)c(Nc4cc(C(C)(C)C)[nH]n4)n3)c2)CC1 [compound 201]

IC50 (H1299 cells; [3]): ≤ 20 µM
IC50 (A549 cells; [4]): ≤ 20 µM
Compound: CN1CCN(c2ccc(Nc3ncc(F)c(NC4CCCCC4)n3)cc2)CC1 [compound 155]

IC50 (H1299 cells; [3]): ≤ 20 µM
IC50 (A549 cells; [4]): ≤ 20 µM
Compound: COc1ccc(Nc2ncc(F)c(Nc3ccc4c(c3)OCCO4)n2)c(C)c1 [compound 1046]

IC50 (H1299 cells; [5]): ≤ 20 µM
IC50 (A549 cells; [6]): ≤ 20 µM
Compound: COc1cc(Nc2ncc(F)c(N(C)c3ccc(OC)c(OC)c3)n2)cc(OC)c1 [compound 865]

IC50 (H1299 cells; [7]): ≤ 20 µM
IC50 (A549 cells; [8]): ≤ 20 µM
Compound: CC(C)(C)OC(=O)NCc1cccc(Nc2ncc(F)c(Nc3cccc(CNC(=O)OC(C)(C)C)c3)n2)c1 [compound 1015]

IC50 (H1299 cells; [5]): ≤ 20 µM
IC50 (A549 cells; [6]): ≤ 20 µM
Compound: COc1cc(Nc2ncc(F)c(N(C)c3cc(OC)cc(OC)c3)n2)cc(OC)c1 [compound 852]

IC50 (H1299 cells; [9]): > 20 µM
IC50 (A549 cells; [10]): > 20 µM
Compound: COC(=O)c1cc2cc(Nc3ncc(F)c(N(C)c4cc(C)c(Cl)c(C)c4)n3)ccc2o1 [compound 672]

IC50 (H1299 cells; [7]): > 20 µM
IC50 (A549 cells; [8]): > 20 µM
Compound: Cc1cc(C)cc(Nc2nc(Nc3cc(C)c(Cl)c(C)c3)ncc2F)c1 [compound 900]

IC50 (H1299 cells; [11]): ≤ 20 µM
IC50 (A549 cells; [12]): ≤ 20 µM
Compound: CN1C(=O)COc2ccc(Nc3nc(Nc4cccc(O)c4)ncc3F)cc21 [compound 255]

IC50 (H1299 cells; [3]): > 20 µM
IC50 (A549 cells; [4]): ≤ 20 µM
Compound: NC(=O)c1ccc(Nc2ncc(F)c(NC3CCCC3)n2)cc1 [compound 175]

IC50 (H1299 cells; [7]): ≤ 20 µM
IC50 (A549 cells; [8]): ≤ 20 µM
Compound: CCN(CC)CCNC(=O)c1ccc(Nc2ncc(F)c(N(C)c3ccc(Cl)c(Cl)c3)n2)cc1 [compound 1031]

IC50 (H1299 cells; [13]): ≤ 20 µM
IC50 (A549 cells; [14]): ≤ 20 µM
Compound: CNC(=O)COc1c(C)cc(Nc2ncc(F)c(Nc3ccc4c(c3)OC(F)(F)C(F)(F)O4)n2)cc1C [compound 575]

IC50 (H1299 cells; [3]): ≤ 20 µM
IC50 (A549 cells; [4]): ≤ 20 µM
Compound: Cc1cc(Nc2ncc(F)c(Nc3ccc4c(n3)NCCO4)n2)ccc1N1CCN(C)CC1 [compound 616]

IC50 (H1299 cells; [3]): ≤ 20 µM
IC50 (A549 cells; [4]): ≤ 20 µM
Compound: CC(C)Nc1nc(Nc2ccc(N3CCN(C)CC3)cc2)ncc1F [compound 215]

IC50 (H1299 cells; [1]): > 20 µM
IC50 (A549 cells; [2]): > 20 µM
Compound: CC(=O)N1CCN(c2cccc(Nc3ncc(F)c(Nc4cccc(Nc5ncc[nH]5)c4)n3)c2)CC1 [compound 1059]

IC50 (H1299 cells; [5]): > 20 µM
IC50 (A549 cells; [6]): > 20 µM
Compound: COc1cc(OC)cc(N(C)c2nc(Nc3ccc(OC)c(Cl)c3)ncc2F)c1 [compound 853]

IC50 (H1299 cells; [3]): ≤ 20 µM
IC50 (A549 cells; [4]): ≤ 20 µM
Compound: CN1CCN(c2ccc(Nc3ncc(F)c(NC4CC(C)(C)N(C)C(C)(C)C4)n3)cc2Cl)CC1 [compound 180]

IC50 (H1299 cells; [3]): ≤ 20 µM
IC50 (A549 cells; [4]): > 20 µM
Compound: CCOC(=O)N1CCN(c2ccc(Nc3ncc(F)c(Nc4ccc5c(n4)NCCO5)n3)cc2)CC1 [compound 604]

IC50 (H1299 cells; [11]): > 20 µM
IC50 (A549 cells; [12]): ≤ 20 µM
Compound: C[C@@H]1Oc2ccc(Nc3nc(Nc4cccc(-c5cnco5)c4)ncc3F)cc2NC1=O [compound 240]

IC50 (H1299 cells; [7]): ≤ 20 µM
IC50 (A549 cells; [8]): ≤ 20 µM
Compound: CNC(=O)COc1c(C)cc(Nc2ncc(F)c(Nc3cc(OC)cc(OC)c3)n2)cc1C [compound 902]

IC50 (H1299 cells; [3]): ≤ 20 µM
IC50 (A549 cells; [4]): ≤ 20 µM
Compound: COc1cc(Nc2ncc(F)c(Nc3ccc4c(c3)OCCO4)n2)c(OC)cc1Cl [compound 1049]

IC50 (H1299 cells; [9]): ≤ 20 µM
IC50 (A549 cells; [10]): ≤ 20 µM
Compound: CCOC(=O)c1cc2cccc(Nc3ncc(F)c(N(C)c4ccc(OC)c(OC)c4)n3)c2[nH]1 [compound 666]

IC50 (H1299 cells; [1]): ≤ 20 µM
IC50 (A549 cells; [2]): ≤ 20 µM
Compound: COc1ccc(Nc2ncc(F)c(Nc3cccc(Nc4ncc[nH]4)c3)n2)cc1F [compound 1051]

IC50 (H1299 cells; [3]): ≤ 20 µM
IC50 (A549 cells; [4]): ≤ 20 µM
Compound: CNc1ncc(F)c(N(C)c2ccc3c(c2)OCCO3)n1 [compound 1038]

IC50 (H1299 cells; [7]): ≤ 20 µM
IC50 (A549 cells; [8]): ≤ 20 µM
Compound: COc1cc(Nc2nc(Nc3cccc(-c4ncco4)c3)ncc2F)cc(OC)c1OC [compound 932]

IC50 (H1299 cells; H1299 (lung) cells): > 20 µM
IC50 (A549 cells; A549 (lung) cells): ≤ 20 µM
Compound: COc1cccc(Nc2ncc(F)c(Nc3ccc4c(c3)NC(=O)C(C)(C)O4)n2)c1C [compound 1065]

IC50 (H1299 cells; [7]): ≤ 20 µM
IC50 (A549 cells; [8]): > 20 µM
Compound: COc1cc(Nc2nc(Nc3ccc(C(N)=O)c(Cl)c3)ncc2F)ccc1Cl [compound 1034]

IC50 (H1299 cells; [13]): ≤ 20 µM
IC50 (A549 cells; [14]): ≤ 20 µM
Compound: Fc1cnc(Nc2cc(Cl)cc(Cl)c2)nc1Nc1ccc2c(c1)OC(F)(F)C(F)(F)O2 [compound 535]

IC50 (H1299 cells; [5]): ≤ 20 µM
IC50 (A549 cells; [6]): ≤ 20 µM
Compound: COc1cc(Nc2nc(Nc3cccc(O)c3)ncc2F)cc(OC)c1 [compound 768]

IC50 (H1299 cells; [3]): ≤ 20 µM
IC50 (A549 cells; [4]): ≤ 20 µM
Compound: CN(c1ccc2c(c1)OCCO2)c1nc(NCCO)ncc1F [compound 1040]
